Read-outs that look alike come from different tables or passages of the source.
What was measured:
[1] = Tissue distribution after acute oral administration; type: in vivo, mouse; conditions: male, C57Bl/6J, mouse, 1 mg/kg PO, 1 h post-acute administration
Method: Male C57Bl/6J mice aged 7–9 weeks (3–4 mice per compound) were fasted overnight before administering each test compound. The compounds were accurately weighed and mixed with an appropriate vehicle to prepare a clear oral solution. The formulations were freshly prepared on the dosing day, and the mice were administered the compound via oral gavage within 4 h of formulation preparation. 1, 2, 4, and 8 h after compound administration, the mice were euthanized, and approximately 200 μL of blood was collected via cardiac puncture for plasma preparation. Brain and liver tissues were harvested and processed for analysis. Sample analysis was performed using LC-MS/MS, as described in detail in the SI. […]
calculated using the equation:
Lucif er yellow = VV bbbbbbbbbbbbbbbbbbbb ×RR FFFF bbbbbbbbbbbbbbbbbbbb ×100 […]
Measurements of BNS808 using LC-MS/MS. MS/MS analyses were conducted using a Sciex QTRAP® 6500+ mass spectrometer (Framingham, MA, USA). Air was […]
Infinity 1031 nitrogen generator (Peak Scientific, Inchinnan, Scotland). Purified air […]
generator to ensure a continuous and stable air supply.

[2] = tested on: mice; experiment: Cataleptic behavior (bar test) induced by WIN-55,212; type: in vivo, mouse; conditions: rimonabant 10 mg/kg PO, BNS808 1 mg/kg; 30 min before WIN-55,212 3 mg/kg IP; bar test at 60 min
Method: Catalepsy was assayed using the bar test. Mice were taken out of their home cages, and their forepaws were placed on a horizontal bar measuring 0.5 cm in diameter, positioned 4 cm above the bench surface. Typically, vehicle-treated mice released the bar within 2 s. Cataleptic behavior was defined as the mice remaining motionless, grasping onto the bar, with an arbitrary cutoff of 30 s. The CB1R antagonists, including rimonabant at doses 1 and 10 mg/kg and BNS808 at a dose of 1 mg/kg, were administered 30 min before the IP injection of 3 mg/kg WIN-55,212 (a CB1R agonist). The test was conducted 60 min after the administration of the agonist.

[3] = Brain compound levels in the CNS side-effect study (Figure 2H); type: in vivo; conditions: male, C57Bl/6J, mouse, brain; rimonabant 10 mg/kg PO, 1 h after administration
Method: The ability of BNS808 and rimonabant (as a positive control) to induce centrally mediated hyperactivity in mice (A–C). Wild-type, male, C57Bl/6J mice received a single dose of rimonabant (10 mg/kg, PO), BNS808 (1 or 10 mg/kg, PO) or vehicle, and the Promethion High-Definition Behavioral Phenotyping System monitored the activity profile. In addition, the ability of BNS808 and rimonabant (as a positive control) to inhibit the hypomotility induced by a CB1R receptor agonist (HU210; 30 μg/kg, IP) was tested in wild-type, male, C57Bl/6J mice which received a single dose of rimonabant (10 mg/kg, PO) or BNS808 (1 or 10 mg/kg, PO) or vehicle (D–F). […] Data represent the mean ± SEM from 4 to 8 mice per group. *P < 0.05 vs Vehicle-treated control. ^#P < 0.05 vs rimonabant.

## Cc1c(C(=O)NN2CCCCC2)nn(-c2ccc(Cl)cc2Cl)c1-c1ccc(Cl)cc1 [rimonabant]
[1]; brain / plasma, read-out: brain-to-plasma (B/P) ratio
  Kp at 1 h: 4.28
[1]; brain, read-out: brain concentration
  concentration at 1 h: 128 ng/g
[1]; liver / plasma, read-out: liver/plasma (L/P) ratio
  Kp at 1 h: 7.4
[1]; liver, read-out: liver concentration
  concentration at 1 h: 226 ng/g
[1]; plasma, read-out: plasma concentration
  concentration at 1 h: 0.03 µg/mL
[2]
  blockade of WIN-55,212-induced cataleptic behavior: blocked the cataleptic behavior
[3]
  concentration at 1 h: 600 ng/g

From article PMC12067444, “Synthesis and Pharmacological Characterization of Novel Peripheral Cannabinoid-1 Receptor Blockers Based on a Tricyclic Scaffold” (Journal of Medicinal Chemistry, 2025)
